Assay results reported in patent publication US8933224B2, “Triazine derivatives” (Pfizer Inc., priority 2013, dated 2015).

Key:
rat PDE10 enzyme = rat PDE10 enzyme (Rattus norvegicus (Rat), UniProt Q9QYJ6); experiment: PDE10 scintillation proximity assay (SPA), inhibition of rat PDE10 enzyme activity; format: biochemical; details: geometric mean of 2-4 determinations unless otherwise indicated (b: ≧5 determinations; c: single determination)
In short: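 SPA with fixed recombinant PDE10 (Sf21-expressed, Ni-NTA and Mono Q purified) converting ~20% of 20 nM ³H-cAMP in 50 mM TRIS pH 7.5, 1.3 mM MgCl2, 0.01% Brij, across an inhibitor range.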

[1] = target: human recombinant PDE10 enzyme (PDE10A) (Homo sapiens, UniProt Q9Y233); experiment: PDE10 scintillation proximity assay (SPA), inhibition of human recombinant PDE10 enzyme activity; format: biochemical; details: geometric mean of 2-4 determinations unless otherwise indicated (b: ≧5 determinations; c: single determination)
Protocol: PDE10 activity was measured using a scintillation assay (SPA-based method) similar to that previously described by Seeger, T. F. et al., Brain Research 985 (2003) 113-126. The compounds' relative activity as PDE10 inhibitors was investigated by assaying a fixed amount of enzyme in the presence of the test compound and low substrate concentration (cAMP) such that an IC50 could be determined. […] The assay is performed in a 384-well format with 50 μL assay buffer (50 mM TRIS pH 7.5; 1.3 mM MgCl2; 0.01% Brij) containing enough PDE10 to convert ˜20% of 20 nM ^3H-cAMP, and a range of inhibitors. Reactions are incubated for 30 minutes at 25° C. The addition of 20 μL of 8 mg/ml yttrium silicate SPA beads (PerkinElmer) stops the reaction. The plates are sealed (TopSeal, PerkinElmer) and the beads are allowed to settle for 8 hrs, after which they are read on the Trilux Microbeta overnight. ^1Rat enzyme preparation:^2Human enzyme preparation:
Human PDE10A coding sequence (amino acids 21 to 797 from the sequence with accession number NP_001124162.1) was synthesized using codon optimization for insect expression and cloned into the baculovirus expression vector pFastBac (Invitrogen) engineered to include a N-terminal His6 affinity tag to aid in purification as described in Seeger, T. F. et al., Brain Research 985 (2003) 113-126. The recombinant Bacmid was isolated and used to transfect sf9 insect cells to generate a viral stock. To generate cell paste for purification, sf21 cells were infected with the virus stock and cells were harvested 72 hours after infection as described in Seeger, T. F. et al., Brain Research 985 (2003) 113-126. Insect cell paste was lysed and after centrifugation, the supernatant was chromatographed on Ni-NTA agarose (Qiagen) as described in Seeger, T. F. et al., Brain Research 985 (2003) 113-126. Ni-NTA agarose eluting fractions containing PDE10A were chromatographed on Superdex 200 (GE Healthcare Life Sciences) in 50 mM Tris HCl pH 7.5, 150 mM NaCl, 1 mM EDTA, 10% glycerol, 2 mM TCEP, 1.5 mM benzamidine, EDTA-free protease inhibitors (Roche), and 5 μM E-64.

rat PDE10 enzyme, sequence (Q9QYJ6 24-794): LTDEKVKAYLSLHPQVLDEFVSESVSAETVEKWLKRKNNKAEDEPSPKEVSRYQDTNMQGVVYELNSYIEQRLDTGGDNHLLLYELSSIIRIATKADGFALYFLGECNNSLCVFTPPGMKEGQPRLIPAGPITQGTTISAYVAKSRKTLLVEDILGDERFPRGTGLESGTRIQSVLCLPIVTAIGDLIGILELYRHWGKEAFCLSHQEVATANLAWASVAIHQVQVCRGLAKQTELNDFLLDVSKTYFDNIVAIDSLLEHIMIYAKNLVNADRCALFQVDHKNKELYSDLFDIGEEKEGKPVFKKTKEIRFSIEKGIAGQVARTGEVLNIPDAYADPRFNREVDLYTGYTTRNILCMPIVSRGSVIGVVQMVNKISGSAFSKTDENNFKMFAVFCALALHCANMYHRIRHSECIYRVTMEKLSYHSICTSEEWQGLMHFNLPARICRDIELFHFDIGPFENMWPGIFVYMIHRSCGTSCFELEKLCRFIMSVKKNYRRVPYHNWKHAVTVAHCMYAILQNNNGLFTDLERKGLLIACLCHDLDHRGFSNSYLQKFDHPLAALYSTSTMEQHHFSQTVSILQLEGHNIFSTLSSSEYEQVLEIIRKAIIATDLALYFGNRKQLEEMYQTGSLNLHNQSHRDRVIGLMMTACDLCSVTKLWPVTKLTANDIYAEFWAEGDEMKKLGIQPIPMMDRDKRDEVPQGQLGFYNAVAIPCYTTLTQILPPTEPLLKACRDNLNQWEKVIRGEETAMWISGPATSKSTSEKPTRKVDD

| IC50 (rat PDE10 enzyme) | IC50 [1] | SMILES |
| --- | --- | --- |
| < 5.55 nM | 2.53 nM | Cc1nc2c(s1)CN(c1ncnn3c(C)nc([C@H]4CCOC4)c13)CC2 [Example 23, 7-methyl-4-(2-methyl-6,7-dihydro[1,3]thiazolo[5,4-c]pyridin-5(4H)-yl)-5-[(3R)-tetrahydrofuran-3-yl]imidazo[5,1-f][1,2,4]triazine] |
| 1.12 nM | 1.41 nM | COc1cnc2c(c1)CN(c1ncnn3c(C)nc(-c4ccccc4F)c13)CC2 [Example 25, 6-[5-(2-fluorophenyl)-7-methylimidazo[5,1-f][1,2,4]triazin-4-yl]-3-methoxy-5,6,7,8-tetrahydro-1,6-naphthyridine] |
| 0.617 nM | 0.891 nM | COc1ccc2c(n1)CCN(c1ncnn3c(C)nc([C@@H]4CCOC4)c13)C2 [Example 27, 2-methoxy-6-{7-methyl-5-[(3S)-tetrahydrofuran-3-yl]imidazo[5,1-f][1,2,4]triazin-4-yl}-5,6,7,8-tetrahydro-1,6-naphthyridine] |
| 0.236 nM | 0.582 nM | COc1nccc2c1CN(c1ncnn3c(C)nc([C@@H]4CCOC4)c13)CC2 [Example 28, 8-methoxy-2-{7-methyl-5-[(3S)-tetrahydrofuran-3-yl]imidazo[5,1-f][1,2,4]triazin-4-yl}-1,2,3,4-tetrahydro-2,7-naphthyridine] |
| 0.307 nM | 0.384 nM | COc1cnc2c(c1)CN(c1ncnn3c(C)nc([C@@H]4CCOC4)c13)CC2 [Example 29, 3-methoxy-6-{7-methyl-5-[(3S)-tetrahydrofuran-3-yl]imidazo[5,1-f][1,2,4]triazin-4-yl}-5,6,7,8-tetrahydro-1,6-naphthyridine] |
| 0.123 nM | 0.275 nM | CCOc1nc(C)nc2c1CN(c1ncnn3c(C)nc([C@@H]4CCOC4)c13)CC2 [Example 35, 4-ethoxy-2-methyl-6-{7-methyl-5-[(3S)-tetrahydrofuran-3-yl]imidazo[5,1-f][1,2,4]triazin-4-yl}-5,6,7,8-tetrahydropyrido[4,3-d]pyrimidine] |
| 1.78 nM | 2.92 nM | Cc1nc(C)c2c(n1)CCN(c1ncnn3c(C)nc([C@@H]4CCOC4)c13)C2 [Example 38, 2,4-dimethyl-6-{7-methyl-5-[(3S)-tetrahydrofuran-3-yl]imidazo[5,1-f][1,2,4]triazin-4-yl}-5,6,7,8-tetrahydropyrido[4,3-d]pyrimidine] |
| 0.442 nM | 0.98 nM | Cc1nc(C2CC2)nc2c1CN(c1ncnn3c(C)nc(-c4ccccc4F)c13)CC2 [Example 40, 2-cyclopropyl-6-[5-(2-fluorophenyl)-7-methylimidazo[5,1-f][1,2,4]triazin-4-yl]-4-methyl-5,6,7,8-tetrahydropyrido[4,3-d]pyrimidine] |
| 0.102 nM | 0.11 nM | Cc1nc([C@@H]2CCOC2)c2c(N3CCc4nn(C)c(C5CC5)c4C3)ncnn12 [Example 44, 4-(3-cyclopropyl-2-methyl-2,4,6,7-tetrahydro-5H-pyrazolo[4,3-c]pyridin-5-yl)-7-methyl-5-[(3S)-tetrahydrofuran-3-yl]imidazo[5,1-f][1,2,4]triazine] |
| 0.758 nM | 1.42 nM | Cc1nc([C@@H]2CCOC2)c2c(N3CCc4ncccc4C3)ncnn12 [Example 47, 6-{7-methyl-5-[(3S)-tetrahydrofuran-3-yl]imidazo[5,1-f][1,2,4]triazin-4-yl}-5,6,7,8-tetrahydro-1,6-naphthyridine] |
| 2.25 nM | 3.27 nM | Cc1nc([C@H]2CCOC2)c2c(N3CCn4ncc(C(F)(F)F)c4C3)ncnn12 [Example 50, 7-methyl-5-[(3R)-tetrahydrofuran-3-yl]-4-[3-(trifluoromethyl)-6,7-dihydropyrazolo[1,5-a]pyrazin-5(4H)-yl]imidazo[5,1-f][1,2,4]triazine] |
| 0.364 nM | 13.8 nM | CCc1c2c(nn1C)CCN(c1ncnn3c(C)nc([C@@H]4CCOC4)c13)C2 [Example 57, 4-(3-ethyl-2-methyl-2,4,6,7-tetrahydro-5H-pyrazolo[4,3-c]pyridin-5-yl)-7-methyl-5-[(3S)-tetrahydrofuran-3-yl]imidazo[5,1-f][1,2,4]triazine] |
